Data reported in the supplement of paper PMC10307832.

Key:
Assay in all cases: relative viability (nuclei count vs DMSO), 5 days (fraction); higher = more cells survive
[1] = test system: 201T
Method in brief: (§1)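 The day after seeding in 1536-well plates, lung cancer cell lines were treated by pin tool with a single drug, or with a fixed anchor-drug dose together with five library-drug doses (not always all listed) in √10 steps. After 5 days, a combined fix-and-stain solution (final 0.05% Triton X-100, 1% formaldehyde, 1 ug/ml Hoechst) was added. Nuclei counted on 4× images gave relative viability as treated counts over vehicle counts, reported as the median of duplicate plates.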

[2] = test system: A-427
Method in brief: as §1

[3] = test system: COR-L 105
Method in brief: as §1

[4] = test system: COR-L23
Method in brief: as §1

[5] = test system: EKVX
Method in brief: as §1

[6] = test system: HARA
Method in brief: as §1

[7] = test system: HCC-15
Method in brief: as §1

[8] = test system: HCC-44
Method in brief: as §1

[9] = test system: HCC-827
Method in brief: as §1

[10] = test system: LCLC-103H
Method in brief: as §1

[11] = test system: LK-2
Method in brief: as §1

[12] = test system: NCI-H1437
Method in brief: as §1

[13] = test system: NCI-H1666
Method in brief: as §1

[14] = test system: NCI-H1792
Method in brief: as §1

[15] = test system: NCI-H1975
Method in brief: as §1

[16] = test system: NCI-H23
Method in brief: as §1

[17] = test system: NCI-H441
Method in brief: as §1

[18] = test system: NCI-H520
Method in brief: as §1

[19] = test system: NCI-H522
Method in brief: as §1

[20] = test system: NCI-H596
Method in brief: as §1

[21] = test system: NCI-H650
Method in brief: as §1

[22] = test system: NCI-H838
Method in brief: as §1

[23] = test system: SK-MES-1
Method in brief: as §1

[24] = test system: SW 900
Method in brief: as §1

## COc1cc(N2CCC(C(N)=O)CC2)ccc1Nc1nc(N)c(Cl)c(Nc2ccccc2S(=O)(=O)C(C)C)n1 [HG-5-88-01] + N=C(N)NC(=N)NCCc1ccccc1 [Phenformin] (partner 250 µM)
[1]; first compound 0.04 µM
  relative viability: 0.54
[1]; first compound 0.1265 µM
  relative viability: 0.452
[1]; first compound 0.4 µM
  relative viability: 0.479
[1]; first compound 1.265 µM
  relative viability: 0.547
[1]; first compound 4 µM
  relative viability: 0.397
[2]; first compound 0.04 µM
  relative viability: 0.36
[2]; first compound 0.1265 µM
  relative viability: 0.336
[2]; first compound 0.4 µM
  relative viability: 0.344
[2]; first compound 1.265 µM
  relative viability: 0.367
[2]; first compound 4 µM
  relative viability: 0.214
[3]; first compound 0.04 µM
  relative viability: 0.61
[3]; first compound 0.1265 µM
  relative viability: 0.511
[3]; first compound 0.4 µM
  relative viability: 0.47
[3]; first compound 1.265 µM
  relative viability: 0.324
[3]; first compound 4 µM
  relative viability: 0.296
[4]; first compound 0.04 µM
  relative viability: 0.458
[4]; first compound 0.1265 µM
  relative viability: 0.407
[4]; first compound 0.4 µM
  relative viability: 0.406
[4]; first compound 1.265 µM
  relative viability: 0.377
[4]; first compound 4 µM
  relative viability: 0.39
[5]; first compound 0.04 µM
  relative viability: 0.276
[5]; first compound 0.1265 µM
  relative viability: 0.262
[5]; first compound 0.4 µM
  relative viability: 0.204
[5]; first compound 4 µM
  relative viability: 0.226
[6]; first compound 0.04 µM
  relative viability: 0.439
[6]; first compound 0.1265 µM
  relative viability: 0.513
[6]; first compound 0.4 µM
  relative viability: 0.48
[6]; first compound 1.265 µM
  relative viability: 0.432
[6]; first compound 4 µM
  relative viability: 0.324
[7]; first compound 0.04 µM
  relative viability: 0.528
[7]; first compound 0.1265 µM
  relative viability: 0.488
[7]; first compound 0.4 µM
  relative viability: 0.4
[7]; first compound 1.265 µM
  relative viability: 0.461
[7]; first compound 4 µM
  relative viability: 0.231
[8]; first compound 0.04 µM
  relative viability: 0.303
[8]; first compound 0.1265 µM
  relative viability: 0.156
[8]; first compound 0.4 µM
  relative viability: 0.201
[8]; first compound 1.265 µM
  relative viability: 0.159
[8]; first compound 4 µM
  relative viability: 0.0886
[9]; first compound 0.04 µM
  relative viability: 0.432
[9]; first compound 0.1265 µM
  relative viability: 0.413
[9]; first compound 0.4 µM
  relative viability: 0.384
[9]; first compound 1.265 µM
  relative viability: 0.29
[9]; first compound 4 µM
  relative viability: 0.249
[10]; first compound 0.04 µM
  relative viability: 0.332
[10]; first compound 0.1265 µM
  relative viability: 0.342
[10]; first compound 0.4 µM
  relative viability: 0.311
[10]; first compound 1.265 µM
  relative viability: 0.308
[10]; first compound 4 µM
  relative viability: 0.302
[11]; first compound 0.04 µM
  relative viability: 0.516
[11]; first compound 0.1265 µM
  relative viability: 0.394
[11]; first compound 0.4 µM
  relative viability: 0.176
[11]; first compound 1.265 µM
  relative viability: 0.352
[11]; first compound 4 µM
  relative viability: 0.198
[12]; first compound 0.04 µM
  relative viability: 0.37
[12]; first compound 0.1265 µM
  relative viability: 0.335
[12]; first compound 0.4 µM
  relative viability: 0.466
[12]; first compound 1.265 µM
  relative viability: 0.37
[12]; first compound 4 µM
  relative viability: 0.194
[13]; first compound 0.04 µM
  relative viability: 0.581
[13]; first compound 0.1265 µM
  relative viability: 0.57
[13]; first compound 0.4 µM
  relative viability: 0.544
[13]; first compound 1.265 µM
  relative viability: 0.558
[13]; first compound 4 µM
  relative viability: 0.459
[14]; first compound 0.04 µM
  relative viability: 0.897
[14]; first compound 0.1265 µM
  relative viability: 0.647
[14]; first compound 0.4 µM
  relative viability: 0.548
[14]; first compound 1.265 µM
  relative viability: 0.525
[14]; first compound 4 µM
  relative viability: 0.291
[15]; first compound 0.04 µM
  relative viability: 0.437
[15]; first compound 0.1265 µM
  relative viability: 0.416
[15]; first compound 0.4 µM
  relative viability: 0.354
[15]; first compound 1.265 µM
  relative viability: 0.365
[15]; first compound 4 µM
  relative viability: 0.188
[16]; first compound 0.04 µM
  relative viability: 0.767
[16]; first compound 0.1265 µM
  relative viability: 0.833
[16]; first compound 0.4 µM
  relative viability: 0.786
[16]; first compound 1.265 µM
  relative viability: 0.868
[16]; first compound 4 µM
  relative viability: 0.441
[17]; first compound 0.04 µM
  relative viability: 0.835
[17]; first compound 0.1265 µM
  relative viability: 0.789
[17]; first compound 0.4 µM
  relative viability: 0.852
[17]; first compound 1.265 µM
  relative viability: 0.589
[17]; first compound 4 µM
  relative viability: 0.294
[18]; first compound 0.04 µM
  relative viability: 0.441
[18]; first compound 0.1265 µM
  relative viability: 0.67
[18]; first compound 0.4 µM
  relative viability: 0.57
[18]; first compound 1.265 µM
  relative viability: 0.431
[18]; first compound 4 µM
  relative viability: 0.492
[19]; first compound 0.04 µM
  relative viability: 0.711
[19]; first compound 0.1265 µM
  relative viability: 0.657
[19]; first compound 0.4 µM
  relative viability: 0.697
[19]; first compound 1.265 µM
  relative viability: 0.558
[19]; first compound 4 µM
  relative viability: 0.502
[20]; first compound 0.04 µM
  relative viability: 0.657
[20]; first compound 0.1265 µM
  relative viability: 0.807
[20]; first compound 0.4 µM
  relative viability: 0.612
[20]; first compound 1.265 µM
  relative viability: 0.728
[20]; first compound 4 µM
  relative viability: 0.379
[21]; first compound 0.04 µM
  relative viability: 0.429
[21]; first compound 0.1265 µM
  relative viability: 0.492
[21]; first compound 0.4 µM
  relative viability: 0.417
[21]; first compound 1.265 µM
  relative viability: 0.424
[21]; first compound 4 µM
  relative viability: 0.335
[22]; first compound 0.04 µM
  relative viability: 0.505
[22]; first compound 0.1265 µM
  relative viability: 0.558
[22]; first compound 0.4 µM
  relative viability: 0.411
[22]; first compound 1.265 µM
  relative viability: 0.368
[22]; first compound 4 µM
  relative viability: 0.313
[23]; first compound 0.04 µM
  relative viability: 0.665
[23]; first compound 0.1265 µM
  relative viability: 0.646
[23]; first compound 0.4 µM
  relative viability: 0.652
[23]; first compound 1.265 µM
  relative viability: 0.602
[23]; first compound 4 µM
  relative viability: 0.643
[24]; first compound 0.04 µM
  relative viability: 0.592
[24]; first compound 0.1265 µM
  relative viability: 0.545
[24]; first compound 0.4 µM
  relative viability: 0.622
[24]; first compound 1.265 µM
  relative viability: 0.671
[24]; first compound 4 µM
  relative viability: 0.408
